Measured values reported in US5622942A, “Percutaneous absorptive anesthetic” (priority 1993, dated 1997).

Tests used:
[1] = Lidocaine blood concentration after application of ointment to the rat abdomen (fluorescence polarization immunoassay); type: in vivo, Wistar rat
Source text: (1) Experimental Animal Wistar rat a. Aqueous gel ointment containing 2% of lidocaine. b. Aqueous gel ointment containing 10% of lidocaine. c. Aqueous gel ointment in (b) containing 3% of compound 4. e. Aqueous gel ointment in (a) containing 3% of compound 4. […] Group with an ointment a applied. Group with an ointment e applied. […] Group with an ointment c applied. Group with 3% Azone (Trademark registered)--10% lidocaine aqueous gel-ointment applied. […] In these groups, the rats had their body portion covered with a polyethylene food wrapping sheet at an area where an ointment was applied, and sealed by means of transparent tape. Then, a blood was withdrawn through a cannula which had been inserted into the carotid. The blood was pretreated with a heparin and separated by means of centrifugal separator to obtain blood plasma. A fluorescence polarization immunoassay was used to determine the concentration of the lidocaine in the blood.

skin [2] = experiment: Preparatory pinprick test of skin anesthesia effect, 3% absorption promoter and 2% lidocaine aqueous gel-ointment; type: in vivo, healthy adult (human); settings: for time at which effect of the skin anesthesia began / time of complete skin anesthesia: after application, 3% promoter + 2% lidocaine; for skin anesthesia effect, in words: pinprick, up to 4 hours after application
Procedure: Same as that in the experimental example 1.
A preparatory experiment was carried out to verify the skin anesthesia effect of various lidocaine aqueous gel-ointments when they are applied in the quantity of 0.3 g/4 cm^2.
Pinprick test was carried out to compare results utilizing lidocaine aqueous gel-ointment which was prepared by mixing the ointments d-h, Xylocaine Jelly (Trademark registered, containing 2% lidocaine, made by Fujisawa Pharmaceutical Co., Ltd.), Azone, a known percutaneous absorption promoter, sodium caprate (to be indicated as Cap Na hereinafter) and isopropyl myristate (to be indicated as IPM hereinafter).
The skin over which various ointments were applied was pierced several times using a 26 gauge intradermal needle at the time of 1, 1.5, 2, 3 and 4 hours after the application, and the degree of pain felt by the adult was evaluated according to a criterion given below.
++ No pain felt at the area where the ointment was applied.
+ Pain felt at some portions.
- Pain felt at that area.

[3] = Acute toxic examination (LD50), oral, rat; settings: in vivo
Procedure: The results of acute toxic examination (LD50) which was carried out with the rat through the oral dose of the compound were follows.

skin [4] = experiment: Double-blind pinprick procedure pain score at the vein puncture area in patients; type: in vivo, patient (human); settings: ointment c versus ointment b, p<0.05
Procedure: A patient who was to receive an operation.
The sponge was applied over an area in which the vein is punctured in accordance with a double-blind assay method. The area was sealed off with a transparent tape, and the topical reaction and the painless effect occurring on the skin were compared about 1 hour later.
The following pain score was employed as a criterion.
When the pain score was zero, the needle was pierced into the skin about 1.0 mm deep to verify the pain.

| Structure (SMILES) | absorption promoting effect (lidocaine blood concentration) ([1]; rat, in vivo) | time at which effect of the skin anesthesia began (skin [2]) [h] | time of complete skin anesthesia (skin [2]) [h] | LD50 [3] [mg/kg] | lidocaine blood concentration ([1]; 2% lidocaine ointments (groups 1 and 2), with or without 3% compound 4) | absorption promoting effect (lidocaine blood concentration) ([1]; 10% lidocaine aqueous gel ointment (groups 3-5), 3% promoter, up to five hours) | effect in removing the pain of the skin, in words (skin [4]) | skin anesthesia effect, in words (skin [2]) |
| --- | --- | --- | --- | --- | --- | --- | --- | --- |
| CCCCCCCCCCCCN1CCCCCC1=O [Azone, reference compound] | no major effect of improving absorption was found | – | – | – | – | – | – | – |
| CC1(C)[C@@H](OC(=O)CCC(=O)O)CC[C@]2(C)[C@H]3C(=O)C=C4[C@@H]5C[C@@](C)(C(=O)O)CC[C@]5(C)CC[C@@]4(C)[C@]3(C)CC[C@@H]12 [Compound 3, Glycyrrhetic acid 3β-monohemisuccinate] | – | 1.5 | 2 | 520 | – | – | – | – |
| CC1(C)[C@@H](OC(=O)c2ccccc2C(=O)O)CC[C@]2(C)[C@H]3C(=O)C=C4[C@@H]5C[C@@](C)(C(=O)O)CC[C@]5(C)CC[C@@]4(C)[C@]3(C)CC[C@@H]12 [Compound 4, Glycyrrhetic acid 3β-monohemiphthalate] | – | 1.5 | 2 | 1320 | any significant result was not observed | an absorption promoting effect of the compound 4 was acknowledged | effective in removing the pain of the skin | – |
| CC1(C)[C@@H](OC(=O)c2ccccc2C(=O)O)CC[C@]2(C)[C@H]3CC=C4[C@@H]5C[C@@](C)(COC(=O)c6ccccc6C(=O)O)CC[C@]5(C)CC[C@@]4(C)[C@]3(C)CC[C@@H]12 [Compound 5, 18β-olean-12-ene-3 β, 30-diol-3 β, 30-dihemiphthalate] | – | – | – | 1260 to 1520 | – | – | – | skin anesthesia effect substantially equal to that by Azone |
| CC1(C)[C@@H](OC(=O)c2ccccc2C(=O)O)CC[C@]2(C)C3=CC=C4[C@@H]5C[C@@](C)(COC(=O)c6ccccc6C(=O)O)CC[C@]5(C)CC[C@@]4(C)[C@]3(C)CC[C@@H]12 [Compound 6, 18β-olean-9(11), 12-diene-3 β, 30-diol-3 β, 30-dihemiphthalate] | – | – | – | 1280 to 1500 | – | – | – | skin anesthesia effect substantially equal to that by Azone |
| CC1(C)[C@@H](OC(=O)c2ccccc2C(=O)O)CC[C@]2(C)[C@H]3C=CC4=C5C[C@@](C)(COC(=O)c6ccccc6C(=O)O)CC[C@]5(C)CC[C@@]4(C)[C@]3(C)CC[C@@H]12 [Compound 7, Olean-11,13(18)-diene-3 β, 30-diol-3 β, 30-dihemiphthalate] | – | 1.5 | 2 | 628 to 793 | – | – | – | – |
